{"source": "paper PMC3988029", "about": "“A Trisubstituted Benzimidazole Cell Division Inhibitor with Efficacy against Mycobacterium tuberculosis” (PLoS ONE, 2014)", "key": {"[1]": {"tested_on": "M. tuberculosis strain Erdman", "experiment": "Modified rapid (acute) murine model of infection", "type": "in vivo, Mycobacterium tuberculosis"}, "[2]": {"tested_on": "M. tuberculosis clinical isolates", "settings": "determined and reported; cited from earlier work"}, "M. tuberculosis H37Rv [3]": {"tested_on": "M. tuberculosis H37Rv", "settings": "lead selection from SAR studies; cited from earlier work"}, "[4]": {"settings": "5 µM, 1 mg/mL microsomal protein, NADPH, 20 min", "procedure": "(§1) The flavin-containing monooxygenases (FMO)-dependent reactions were run in the presence of bovine serum albumin (BSA, 0.1%) for the duration of 0 and 20 min (with or without microsomal proteins and/or cofactors). […] Following protein precipitation with acetonitrile and their removal by centrifugation, supernatant fluids were analyzed by LC/MS-MS.\n(§2) Thermo Finnigan TSQ Quantum Ultra instrument, ESI positive ion ionization mode. Each compound is studied in duplicates. Results are expressed in percentage of lability (or total metabolism).\n(§3) Total metabolism = [1– (UC1 Peak Area)/(UC2 Peak Area)] × 100.\n(§4) UCn = Unchanged Compound in condition n;\n(§5) n = 1: incubation in the presence of NADPH cofactor after T = 20 min.\n(§6) n = 2: incubation without cofactor at T = 0 min."}, "[5]": {"settings": "100 ng/mL", "procedure": "(§7) Blood was collected from animals using lithium heparin as anticoagulant, in the Animal Research & Welfare Domain at Disposition, Safety & Animal Research Montpellier (371 rue du Pr. J. Blayac, 34184 Montpellier Cedex 04, France) or vendors such as Charles River. Human plasma using lithium heparin as anticoagulant was provided by the EFS (Etablissement Français du Sang) of Montpellier, France. Plasma was spiked with the compound in order to obtain a final drug concentration of 100 ng/mL (expressed as non-salified compound). The spiked plasma (dedicated to C1h and C4h) was then incubated at 37°C for 1 h and 4 h. Plasma samples were analyzed by LC-MS/MS following protein precipitation. The limit of quantification for compounds was 10 ng/mL. Chromatographic conditions for LC analysis: 10 µL of the sample was injected to Luna Phenomenex C8 (50 mm×2.0 mm, 3 µm), Solvent A: ammonium acetate (0.15 g)/formic acid (2 mL)/HPLC water up to 1000 mL. […] MS/MS condition used for detection: Finnigan TSQ Quantum disco instrument, Excalibur version 2.0 acquisition system, ESI positive ion ionization mode. The mean percent of difference between C1h or C4h and C0 concentrations was calculated.\nM%D (%) = 100 × [(C1h or C4h)–C0]/C0\n(§8) The compounds were considered as stable if the mean percent of difference between C4h and C0 concentrations was less than 20%."}, "[6]": {"settings": "5 µM, 1 mg/mL microsomal protein, NADPH, 20 min", "remark": "listed apart in the source", "procedure": "as §1, §2, §3, §4, §5, §6"}, "Mtb FtsZ [7]": {"target": "T1, Mtb FtsZ (Mycobacterium tuberculosis, UniProt P9WN95)", "T1 sequence (P9WN95 whole entry, looked up)": "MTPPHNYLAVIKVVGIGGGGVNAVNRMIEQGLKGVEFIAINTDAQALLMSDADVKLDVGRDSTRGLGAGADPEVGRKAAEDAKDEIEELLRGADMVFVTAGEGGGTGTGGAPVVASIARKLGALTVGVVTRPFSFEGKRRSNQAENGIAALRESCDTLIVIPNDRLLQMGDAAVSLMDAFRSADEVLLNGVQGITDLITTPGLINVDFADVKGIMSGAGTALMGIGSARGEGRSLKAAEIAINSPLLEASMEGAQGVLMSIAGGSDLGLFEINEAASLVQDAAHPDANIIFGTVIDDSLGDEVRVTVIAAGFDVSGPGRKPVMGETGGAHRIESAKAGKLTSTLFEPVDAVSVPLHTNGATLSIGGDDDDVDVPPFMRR", "settings": "earlier work of the authors; no reference given; cited from earlier work"}, "M. tuberculosis W210": {"tested_on": "M. tuberculosis W210", "experiment": "Microplate Alamar Blue assay (MABA) MIC", "type": "cell-based", "settings": "Mycobacterium tuberculosis"}, "M. tuberculosis TN587": {"tested_on": "M. tuberculosis TN587", "experiment": "Microplate Alamar Blue assay (MABA) MIC", "type": "cell-based", "settings": "Mycobacterium tuberculosis"}, "Mtb FtsZ [8]": {"target": "T1, Mtb FtsZ", "experiment": "Transmission electron microscopy of FtsZ polymerization", "type": "biochemical, M. tuberculosis", "settings": "FtsZ 5 µM, GTP 25 µM"}, "M. tuberculosis NHN20": {"tested_on": "M. tuberculosis NHN20", "experiment": "Microplate Alamar Blue assay (MABA) MIC", "type": "cell-based", "settings": "Mycobacterium tuberculosis"}, "M. tuberculosis H37Rv [9]": {"tested_on": "M. tuberculosis H37Rv", "experiment": "Time-dose growth (OD600 nm) and kill (CFU) curves", "type": "cell-based, Mycobacterium tuberculosis"}, "M. tuberculosis H37Rv [10]": {"tested_on": "M. tuberculosis H37Rv", "experiment": "Microplate Alamar Blue assay (MABA) MIC", "type": "cell-based", "settings": "Mycobacterium tuberculosis"}, "[11]": {"settings": "100 ng/mL", "remark": "listed apart in the source", "procedure": "as §7\nM%D (%) = 100 × [(C1h or C4h)–C0]/C0\nas §8"}, "M. tuberculosis NHN382": {"tested_on": "M. tuberculosis NHN382", "experiment": "Microplate Alamar Blue assay (MABA) MIC", "type": "cell-based", "settings": "Mycobacterium tuberculosis"}}, "note": "Several values for one entry are separate records, joined by “and”; a condition that tells them apart may be missing. Equal values may be shown once. Entries after “also recorded” stand apart in the source; their conditions may differ. Read-outs that look alike come from different tables or passages of the source.", "data": [{"smiles": "NNC(=O)c1ccncc1", "note": "[INH, isoniazid, reference compound]", "values": [{"measurement": "CFU counts in the lung and spleen", "setting": "[1]; IP 20 mg/kg qd, control drug", "result": "below the level of detection"}]}, {"smiles": "CCCCOC(=O)Nc1cc2nc(C3CCCCC3)[nH]c2cc1N(C)C", "note": "[SB-P17G-C2]", "values": [{"measurement": "MIC values against clinical isolates", "setting": "[2]", "result": "0.06 to 0.13", "unit": "µg/mL"}, {"measurement": "MIC", "setting": "M. tuberculosis H37Rv [3]", "result": 0.06, "unit": "µg/mL"}, {"measurement": "Reduction in the bacterial load in the lungs or spleen", "setting": "[1]; acute mouse model, data not shown", "result": "no significant reduction; also recorded: did not significantly reduce the bacterial load in the lungs or spleen"}, {"measurement": "Liver Microsome Lability Mouse", "setting": "[4]", "result": 96, "unit": "%"}, {"measurement": "Plasma Stability (% hydrolysis) Human (4 h)", "setting": "[5]", "result": 6.1, "unit": "%"}, {"measurement": "Liver Microsome Lability Human", "setting": "[6]", "result": 90, "unit": "%"}]}, {"smiles": "CCCCOC(=O)Nc1cc2nc(C3CCCCC3)[nH]c2cc1N(CC)CC", "note": "[SB-P3G2]", "values": [{"measurement": "Inhibition of FtsZ polymerization", "setting": "Mtb FtsZ [7]", "result": "inhibit FtsZ polymerization in a dose dependent manner"}]}, {"smiles": "CN(C)c1cc2[nH]c(C3CCCCC3)nc2cc1NC(=O)c1ccc(OC(F)(F)F)cc1", "note": "[SB-P17G-A20]", "values": [{"measurement": "MIC", "setting": "M. tuberculosis W210", "result": 0.16, "unit": "µg/mL"}, {"measurement": "MIC", "setting": "M. tuberculosis TN587", "result": 0.16, "unit": "µg/mL"}, {"measurement": "Effect on FtsZ polymers (TEM)", "setting": "Mtb FtsZ [8]; 40 µM compound", "result": "the length, density and aggregation was visibly reduced"}, {"measurement": "Effect on FtsZ polymers (TEM)", "setting": "Mtb FtsZ [8]; 80 µM compound", "result": "dispersed FtsZ polymers are observed"}, {"measurement": "MIC", "setting": "M. tuberculosis H37Rv [3]", "result": 0.16, "unit": "µg/mL"}, {"measurement": "MIC", "setting": "M. tuberculosis NHN20", "result": 0.16, "unit": "µg/mL"}, {"measurement": "Reduction in the bacterial load in the lungs", "setting": "[1]; C57BL/6-Ifngtm1ts mice, 50 mg/kg IP bid, days 5 to 14 post-infection, vs infected controls", "result": "1.73±0.24", "unit": "log10 CFU"}, {"measurement": "Reduction in the bacterial load in the spleen", "setting": "[1]; C57BL/6-Ifngtm1ts mice, 50 mg/kg IP bid, days 5 to 14 post-infection, vs infected controls, 50 mg/kg", "result": "2.68 log10 CFU and 2.68±0.48 log10 CFU"}, {"measurement": "Concentration that steadily reduced bacterial viability", "setting": "M. tuberculosis H37Rv [9]; CFU plating, day 0, 2, 4, 6", "result": 0.08, "unit": "µg/mL"}, {"measurement": "Killing characteristics", "setting": "M. tuberculosis H37Rv [9]; growth curves at various concentrations", "result": "concentration-dependent inhibitor with sub-MIC inhibitory characteristics"}, {"measurement": "Lowest concentration at which bacterial growth was reduced", "setting": "M. tuberculosis H37Rv [9]; in some cases", "result": 0.125, "unit": "X MIC"}, {"measurement": "MIC", "setting": "M. tuberculosis H37Rv [10]", "result": 0.16, "unit": "µg/mL"}, {"measurement": "Liver Microsome Lability Mouse", "setting": "[4]", "result": 45, "unit": "%"}, {"measurement": "Plasma Stability (% hydrolysis) Human (4 h)", "setting": "[5]", "result": 0.1, "unit": "%"}, {"measurement": "Plasma Stability (% hydrolysis) Mouse (4 h)", "setting": "[11]", "result": 24.4, "unit": "%"}, {"measurement": "MIC", "setting": "M. tuberculosis NHN382", "result": 0.16, "unit": "µg/mL"}, {"measurement": "Liver Microsome Lability Human", "setting": "[6]", "result": 39, "unit": "%"}]}]}
